US8772274B1, “Anti-cancer compositions and methods” (The Penn State Research Foundation, priority 2008, dated 2014)
Structures can show the parent of a compound that is named as a salt.

Legend:
[1] = system: MDA-MB-231 breast adenocarcinoma cells; experiment: MTS cell viability assay, MDA-MB-231; assay type: cell-based, human
Experimental: (§1) Growth inhibitory effects on cultured cells from human vertical growth phase (VGP) melanoma cell line WM115, Lung adenocarcinoma (A549), fibrosarcoma (HT-1080), prostate adenocarcinoma (PC-3), ovarian carcinoma (OVCAR-3), and breast adenocarcinoma (MDA-MB-231) are plated in 96 well plates at a density of 5×10^3 cells/well in 100 μl media. […] Dose response curves for each compound are generated and the IC50 values (μM) determined using GraphPad Prism software. Each experiment is replicated at least 3 times and the average IC50 (μM) values with standard error represented.

[2] = system: HCT-116 colorectal adenocarcinoma cells; experiment: MTS cell viability assay, HCT-116; assay type: cell-based; conditions: Homo sapiens; HCT-116; 24-72 hours; MTS; read-out: Inhibition of growth IC50, HCT-116 (Table II)
[3] = system: UACC 903 melanoma cell line; experiment: MTS cell viability assay, UACC 903; assay type: cell-based; conditions: Homo sapiens; UACC 903 melanoma; 24 hours treatment; MTS; read-out: IC50, UACC 903 (Table I)
Experimental: (§2) Cellular viability compared to control treated cells is measured using the MTS assay (Promega, Madison, Wis.).

[4] = system: iNOS (total nitrate+nitrite in Caco-2 cells); experiment: Nitrite estimation (nitrate/nitrite colorimetric assay); assay type: cell-based; conditions: 2-4 μM, 72 hours
Experimental: Nitrite content in cell culture media is determined using a nitrate/nitrite colorimetric assay kit (Cayman Chemical Company, Ann Arbor, Mich.) essentially as described in Salvucci, O. et al., Cancer Res 2001; 61:318-26. Caco-2 cells (1×10^6) are plated in 60 mm culture dishes in advanced DMEM containing 10% heat treated FBS for 12 hours, growing cells conditioned with phenol-red free DMEM containing 0.5% FBS for an additional 12 hours. Cells are then treated with increasing concentrations of PBIT (40 and 80 μM) or PBISe (2 and 4 μM) dissolved in phenol-red free DMEM (2 ml) containing 0.5% FBS for 72 hours. Culture supernatants are collected and total nitrite (nitrate+nitrite) measured by incubating 80 μL supernatant with enzyme cofactor mixture (10 μL) and nitrate reductase (10 μL) for 2 hours. Total nitrite is measured by the addition of Griess reagent-I and II (50 μL each). A nitrate standard curve (5-35 μM) is simultaneously prepared. Total nitrite present in media alone is subtracted from all experimental values and represented as micromolar nitrite produced following each treatment.

UACC 903 melanoma cells [5] = experiment: Apoptosis, Apo-ONE caspase-3/7 assay; assay type: cell-based
Experimental: […] Proliferation and apoptosis rates are measured using a BrdU ELISA kit (Roche Applied Sciences, Indianapolis, Ind.) and Apo-ONE Homogenous caspase-3/7 Assay kit (Promega, Madison, Wis.), respectively, (Madhunapantula S V, et al., Cancer Res 2007; 67:3626-36).

UACC 903 melanoma cells [6] = experiment: Cellular proliferation, BrdU ELISA; assay type: cell-based; conditions: 2 μM, 24 hours
Experimental: Cellular proliferation and apoptosis rates are measured by seeding 5×10^3 cells in 96-well plates, followed by treatment for 24 hours with PBISe or PBIT (0.5-10.5 μM). Proliferation and apoptosis rates are measured using a BrdU ELISA kit (Roche Applied Sciences, Indianapolis, Ind.) and Apo-ONE Homogenous caspase-3/7 Assay kit (Promega, Madison, Wis.), respectively, (Madhunapantula S V, et al., Cancer Res 2007; 67:3626-36).

[7] = system: 1205Lu melanoma cell line; experiment: MTS cell viability assay, 1205Lu; assay type: cell-based; conditions: Homo sapiens; 1205Lu melanoma; 24 hours treatment; MTS; read-out: IC50, 1205Lu (Table I)
Experimental: as §2

[8] = system: PC-3 prostate adenocarcinoma cells; experiment: MTS cell viability assay, PC-3; assay type: cell-based, human
Experimental: as §1

[9] = Systemic toxicity assessment, i.p. treatment; assay type: in vivo; conditions: nude mice, 3 weeks
Experimental: Tumor kinetics are measured by subcutaneous injection of 5×10^6 UACC 903 or 2.5×10^61205 Lu cells in 0.2 ml of DMEM containing 10% FBS above left and right rib cages of 4-6 week old female nude mice (Harlan Sprague Dawley, Indianapolis, Ind.). Six days later, a fully vascularized tumor has developed and mice are randomly placed in control DMSO or experimental (PBIT or PBISe) groups (n=5 animals; 10 tumors total) followed by i.p. treatment with PBIT ([…]) or PBISe ([…]; equivalent to 2.5 ppm selenium per 20 g mouse) on Monday, Wednesday and Friday for 3 weeks. Dimensions of developing tumors and body weight are measured.
Systemic toxicity of PBISe in animals is evaluated in nude mice. Mice are exposed to PBISe or PBIT ([…]), or vehicle DMSO, 3 times per week and animals weighed to ascertain possible toxicity. 4-6 week old female nude mice (Harlan Sprague Dawley, Indianapolis, Ind.) are injected i. p. with either control DMSO vehicle, PBIT or PBISe (0.315 μmoles each) for 3 weeks by following the regime used for tumorigenicity. Blood is then collected from each animal in plasma separator tubes with lithium heparin (BD Microtainer, BD, Franklin Lakes, N.J.) following cardiac puncture and analyzed for SGOT, SGPT, alkaline phosphatase, glucose and creatinine to ascertain liver, heart, kidney and pancreas related toxicity. For morphological examination of blood cells, whole blood is collected in microtainer tubes containing K2EDTA (BD Microtainer, BD, Franklin Lakes, N.J.) and RBC, WBC, lymphocytes, monocytes, eosinophils, platelets, total hemoglobin and hematocrit percentage analyzed. Blood is also microscopically examined for segregates, polychromatin bodies, and smudge cells. A portion of vital organs—liver, heart, kidney, intestine, pancreas and adrenal—from each animal is formalin fixed and paraffin-embedded to examine for toxicity-associated changes in cell morphology and organization following H&E staining. […] Thus, PBISe treatment has negligible associated systemic toxicity at the concentrations examined.

## N=C(N)[Se]CCc1ccc(CC[Se]C(=N)N)cc1 [PBISe, s,s′-1,4-phenylene-bis(1,2-ethanediyl)bis-isoselenourea dihydrobromide]
[1]; Homo sapiens, MDA-MB-231, 24 h, read-out: Inhibition Cancer Cells IC50, MDA-MB-231 (Table III)
  IC50: 6 ± 0.54 µM
[1]; ratio of IC50 PBIT/PBISe, MDA-MB-231
  Fold increase in efficacy (PBIT/PBISe), MDA-MB-231: >16.7 fold
[2]
  IC50: 4.72 ± 0.44 µM
[3]
  IC50: 8.1 ± 0.8 µM
[4]
  total nitrate+nitrite production: reduces
UACC 903 melanoma cells [5]; UACC 903, increasing concentrations up to 10.5 μM, 24 hours, compared to PBIT
  caspase-3/7 activity: elevated
UACC 903 melanoma cells [5]; doses higher than 10.5 μM
  cell death at higher doses: > 80%
UACC 903 melanoma cells [6]
  reduction of cellular proliferative capacity compared to PBS vehicle or PBIT treated cells: ~90%
[7]
  IC50: 9.8 ± 0.7 µM
[8]; Homo sapiens, 24 h, read-out: Inhibition Cancer Cells IC50, PC-3 (Table III)
  IC50: 6.6 ± 0.95 µM
[8]; ratio of IC50 PBIT/PBISe, PC-3
  Fold increase in efficacy (PBIT/PBISe), PC-3: >15.2 fold
[9]; i.p. 0.315 μmoles
  blood parameters (SGOT, SGPT, alkaline phosphatase, blood urea, glucose and creatinine): did not detect significant liver, kidney or cardiac related toxicity
  histological examination of H&E stained vital organ sections: did not significantly change cell morphology or organ structure
[9]; i.p. 3 times per week
  body weight during treatment: No significant difference
